# Results published in patent US20170095423A1, “Use of selectively moisture-adjusted tabletting material in the production of mechanically stable tablets which contain at least one hydrate-forming active substance and/or adjuvant relevant to the mechanical stability of the tablets, particularly arginine-containing tablets” (Boehringer Ingelheim International GmBH, priority 2012, published 2017).
# Test: sorption/desorption (DVS) behaviour: phase transition of the hydrate-forming agent L-arginine
# Format: physicochemical
# From the text: DVS measurement: measurement of the water absorption of a sample as a function of relative humidity and temperature using a highly sensitive sorption scale.
# Phase transition in hydrate-forming active substances or adjuvants: the relative humidity at which the hydrate-forming agent water (particularly water of crystallization) is incorporated and changes from an anhydrate or a lower-valency form into a higher valency hydrate form, or vice versa. This relative humidity is characteristic of the respective hydrate-forming agent; if a hydrate-forming agent incorporates water in several steps, there are several phase transitions in this substance. For example: phase transition for pure L-arginine: 38% r.h./25° C. with incorporation of about 1.5 mol of water per 1 mol of L-arginine; in mixtures comprising L-arginine the phase transition is typically between 38 and 40% r.h./25° C., but in the test formulation described herein by way of example it starts, at latest, at 40% r.h./25° C.
# (sorption and desorption cycle; change water content vs. rel. humidity). Tablets produced from tabletting material pre-conditioned at 25° C./45% r.h. were subsequently stored in very different humidity ranges (arrows; for discussion of the cases 1-4 see the description herein).
smiles,measurement,setting,value
N=C(N)NCCC[C@H](N)C(=O)O [L-arginine],"phase transition (relative humidity at which water of crystallization is incorporated), sorption cycle",25° C.,38 % r.h.
same,phase transition in the desorption cycle (release of water of crystallisation),25° C.,< 30 % r.h.
same,water incorporated at phase transition,38% r.h./25° C.,about 1.5 mol of water per 1 mol of L-arginine
same,"relative humidity to ensure the phase transition, sorption cycle",at 40° C.,about 47 % r.h.
